Measurements reported in patent US20070128217A1 (priority 2003, published 2007).

Key:
[1] = system: antibodies in sera from SARS patients (sera 1a, 1b, 2, 6, 37, 62, London, SARS-yellow, SARS-green); type: binding, human; set-up: Binding of serum 6 to linear peptides of protein X1 of SARS-CoV Urbani / Binding of serum 37 to linear peptides of protein X1 of SARS-CoV Urbani / Binding of serum 6 to looped/cyclic peptide (PEPSCAN-ELISA) / Binding of serum 37 to looped/cyclic peptide (PEPSCAN-ELISA) / Binding of serum 37 to looped/cyclic peptides of protein X1 of SARS-CoV Urbani / Binding of serum 6 to linear peptides of protein X2 / Binding of serum 37 to linear peptides of protein X2 / Binding of serum 37 to looped/cyclic peptides of protein X2 of SARS-CoV Urbani / Binding of serum 6 to linear peptides of protein M of SARS-CoV Urbani / Binding of serum 37 to linear peptides of protein M of SARS-CoV Urbani / Binding of serum 6 to looped/cyclic peptides of protein M of SARS-CoV Urbani / Binding of serum 37 to looped/cyclic peptides of protein M of SARS-CoV Urbani / Binding of serum 6 to linear peptides of protein X3 of SARS-CoV Urbani / Binding of serum 37 to linear peptides of protein X3 of SARS-CoV Urbani / Binding of serum 37 to looped/cyclic peptides of protein X3 of SARS-CoV Urbani / Binding of serum 6 to linear peptides of protein X4 of SARS-CoV Urbani / Binding of serum 37 to linear peptides of protein X4 of SARS-CoV Urbani / Binding of serum 37 to looped/cyclic peptides of protein X4 of SARS-CoV Urbani / Binding of serum 6 to linear peptides of protein X5 of SARS-CoV Urbani / Binding of serum 37 to linear peptides of protein X5 of SARS-CoV Urbani / Binding of serum 37 to looped/cyclic peptides of protein X5 of SARS-CoV Urbani / Binding of serum 6 to linear peptides of protein N of SARS-CoV Urbani / Binding of serum 37 to linear peptides of protein N of SARS-CoV Urbani / Binding of serum 6 to linear peptide (PEPSCAN-ELISA) / Binding of serum 1a to looped/cyclic peptides of protein N of SARS-CoV Urbani / Binding of serum 1b to looped/cyclic peptides of protein N of SARS-CoV Urbani / Binding of serum 2 to looped/cyclic peptides of protein N of SARS-CoV Urbani / Binding of serum 6 to looped/cyclic peptides of protein N of SARS-CoV Urbani / Binding of serum 37 to looped/cyclic peptides of protein N of SARS-CoV Urbani / Binding of serum 62 to looped/cyclic peptides of protein N of SARS-CoV Urbani / Binding of serum London to looped/cyclic peptides of protein N of SARS-CoV Urbani / Binding of serum SARS-green to looped/cyclic peptides of protein N of SARS-CoV Urbani: unit not given here
[2] = system: control sera (pooled serum of ten healthy LUMC hospital workers; commercial negative donor pooled serum from the Dutch bloodbank); type: binding, human; set-up: Binding of Control serum LUMC to linear peptides / Binding of Control serum Blood-bank to linear peptides / Binding of Control serum LUMC to looped peptides / Binding of Control Serum Blood-Bank to Looped peptides / Binding of Control serum LUMC to linear peptides of the protein M of SARS-CoV Urbani / Binding of Control serum Blood-bank to linear peptides of the protein M of SARS-CoV Urbani / Binding of Control serum LUMC to looped peptides of the protein M of SARS-CoV Urbani / Binding of Control Serum Blood-Bank to Looped peptides of the protein M of SARS-CoV Urbani: unit not given here
[3] = system: rabbit serum obtained by immunizing a rabbit with the SARS-CoV strain Frankfurt 1; type: binding; set-up: Binding of a rabbit serum to linear peptides / Binding of a rabbit serum to looped peptides / Rabbit serum linear peptides / Rabbit serum looped peptides / Binding of a rabbit serum to linear peptides of protein N of SARS-CoV Urbani (Rabbit serum linear peptides) / Binding of a rabbit serum to looped/cyclic peptides of protein N of SARS-CoV Urbani (Rabbit serum looped peptides): unit not given here
[4] = system: recombinant human anti-SARS-CoV antibody 03-018; type: binding; set-up: Binding of antibody 03-018 to linear peptides of the N protein of SARS-CoV Urbani / Binding of antibody 03-018 to looped/cyclic peptides of the N protein of SARS-CoV Urbani: unit not given here

Sequence | Binding of serum 1a to linear peptides of protein N of SARS-CoV Urbani [1] | Binding of serum 1a to looped/cyclic peptides of protein N of SARS-CoV Urbani [1] | Binding of serum 1b to linear peptides of protein N of SARS-CoV Urbani [1] | Binding of serum 1b to looped/cyclic peptides of protein N of SARS-CoV Urbani [1] | Binding of serum 2 to linear peptides of protein N of SARS-CoV Urbani [1] | Binding of serum 2 to looped/cyclic peptides of protein N of SARS-CoV Urbani [1] | Binding of serum 6 to looped/cyclic peptides of protein N of SARS-CoV Urbani [1] | Binding of serum 37 to looped/cyclic peptides of protein N of SARS-CoV Urbani [1] | Binding of serum 62 to looped/cyclic peptides of protein N of SARS-CoV Urbani [1] | Binding of serum London to looped/cyclic peptides of protein N of SARS-CoV Urbani [1] | Binding of serum SARS-green to looped/cyclic peptides of protein N of SARS-CoV Urbani [1] | Binding of serum SARS-yellow to looped/cyclic peptides of protein N of SARS-CoV Urbani [1] | Binding of Control Serum Blood-Bank to Looped peptides [2] | Binding of Control serum Blood-bank to linear peptides [2] | Binding of Control serum LUMC to linear peptides [2] | Binding of Control serum LUMC to looped peptides [2] | Binding of a rabbit serum to linear peptides of protein N of SARS-CoV Urbani (Rabbit serum linear peptides) [3] | Binding of a rabbit serum to looped/cyclic peptides of protein N of SARS-CoV Urbani (Rabbit serum looped peptides) [3] | Binding of antibody 03-018 to linear peptides of the N protein of SARS-CoV Urbani [4] | Binding of antibody 03-018 to looped/cyclic peptides of the N protein of SARS-CoV Urbani [4] | also measured
GLPNNTASWFTALTQ | 0.2 | 0.4 | 0.1 | 0.2 | 0.2 | 0.4 | 0.3 | 0.7 | 0.7 | 0.4 | 0.6 | 0.5 | 0.8 | 0.7 | 0.6 | 0.7 | 0.1 | 0.4 | 0.1 | 0.3 | Binding of serum 6 to linear peptides of protein N of SARS-CoV Urbani [1]: 0.1; Binding of serum 37 to linear peptides of protein N of SARS-CoV Urbani [1]: 0.7; Binding of serum 62 to linear peptides of protein N of SARS-CoV Urbani [1]: 0.6; Binding of serum London to linear peptides of protein N of SARS-CoV Urbani [1]: 0.4; Binding of serum SARS-green to linear peptides of protein N of SARS-CoV Urbani [1]: 0.4; Binding of serum SARS-yellow to linear peptides of protein N of SARS-CoV Urbani [1]: 0.4
GNSRNSTPGSSRGNS |  | 0.6 |  | 0.5 |  | 0.4 | 0.4 | 0.5 | 0.5 | 0.3 | 0.1 | 0.5 | 0.6 | 0.8 | 0.7 | 0.7 | 0.2 | 0.8 | 0.1 | 0.2 | Binding of serum 1a to linear peptide (PEPSCAN-ELISA) [1]: 0.7; Binding of serum 1b to linear peptide (PEPSCAN-ELISA) [1]: 0.5; Binding of serum 2 to linear peptide (PEPSCAN-ELISA) [1]: 0.2; Binding of serum 6 to linear peptide (PEPSCAN-ELISA) [1]: 0.2; Binding of serum 37 to linear peptide (PEPSCAN-ELISA) [1]: 0.7; Binding of serum 62 to linear peptide (PEPSCAN-ELISA) [1]: 0.7; Binding of serum London to linear peptide (PEPSCAN-ELISA) [1]: 0.5; Binding of serum SARS-green to linear peptide (PEPSCAN-ELISA) [1]: 0.2; Binding of serum SARS-yellow to linear peptide (PEPSCAN-ELISA) [1]: 0.7
GPEQTQGNFGDQDLI |  | 0.4 |  | 0.4 |  | 0.4 | 0.2 | 0.6 | 0.4 | 0.3 | 0.9 | 0.6 | 0.5 | 0.8 | 0.8 | 0.6 | 0.2 | 0.3 | 0.1 | 0.2 | Recognition of the peptide by sera of SARS-CoV infected individuals, and form (linear, looped/cyclic) in which it is recognized [1]: recognized in linear form
GPQSNQRSAPRITFG | 0.2 | 0.3 | 0.1 | 0.2 | 0.2 | 0.3 | 0.3 | 0.6 | 0.4 | 0.4 | 0.3 | 0.8 | 0.7 | 0.6 | 0.5 | 0.8 |  |  |  |  | Binding of serum 6 to linear peptides of protein N of SARS-CoV Urbani [1]: 0.1; Binding of serum 37 to linear peptides of protein N of SARS-CoV Urbani [1]: 0.6; Binding of serum 62 to linear peptides of protein N of SARS-CoV Urbani [1]: 0.7; Binding of serum London to linear peptides of protein N of SARS-CoV Urbani [1]: 0.4; Binding of serum SARS-green to linear peptides of protein N of SARS-CoV Urbani [1]: 0.4; Binding of serum SARS-yellow to linear peptides of protein N of SARS-CoV Urbani [1]: 0.5; Recognition of the peptide by the rabbit serum [3]: also recognized; Recognition of the peptide by antibody 03-018 [4]: recognized
